Assay results reported in ChEMBL document CHEMBL1158194, “Phytogrowth-inhibitory compounds from Malmea depressa” (J Nat Prod, 1996).
Converted amounts (≈) assume the structure as drawn.

How the values were obtained:
[1] = test system: A549; experiment: Cytotoxicity against human A549 cells; type: functional; conditions: read-out: ED50 (the source's name)
[2] = test system: HT-29; experiment: Cytotoxicity against human HT29 cells; type: functional; conditions: read-out: ED50 (the source's name)
[3] = test system: Amaranthus hypochondriacus; experiment: Inhibition of phytogrowth in Amaranthus hypochondriacus seedlings measured after 24 hrs incubation under dark condition; type: functional, organism-based
[4] = test system: Echinochloa crus-galli; experiment: Inhibition of phytogrowth in Echinochloa crus-galli seedlings measured after 48 hrs incubation under dark condition; type: functional, organism-based
[5] = test system: MCF7; experiment: Cytotoxicity against human MCF7 cells; type: functional; conditions: read-out: ED50 (the source's name)
[6] = test system: Trichophyton mentagrophytes; experiment: Antifungal activity against Trichophyton mentagrophytes ATCC 9129 by agar dilution method; type: functional
[7] = Toxicity in brine shrimp larvae; type: organism-based; conditions: artemia, in vivo
[8] = test system: Fusarium oxysporum; experiment: Antifungal activity against Fusarium oxysporum; type: functional
[9] = test system: Aspergillus niger; experiment: Antifungal activity against Aspergillus niger ATCC 16888 by agar dilution method; type: functional

Row | SMILES | EC50 [1] | EC50 [2] | IC50 [3] | IC50 [4] | EC50 [5] | MIC [6] | also measured
1 | C=CCc1cc(OC)c(OC)c(OC)c1OC | 29 µg/mL (≈ 122 µM) | 71 µg/mL (≈ 298 µM) | 43 µg/mL (≈ 180 µM) | 810 µg/mL (≈ 3400 µM) | 46 µg/mL (≈ 193 µM) | 500 µg/mL (≈ 2100 µM) | LC50 [7]: 144 µg/mL (≈ 604 µM); MIC [8]: 250 µg/mL (≈ 1050 µM)
2 | COc1cc(C=O)c(OC)c(OC)c1OC | – | – | 822 µg/mL (≈ 3630 µM) | > 1000 µg/mL | – | – | –
3 | C[C@@H]1[C@H](O)[C@@H](C)/C=C/C=C/C=C/C=C/C=C/C=C/C=C/[C@H](O[C@@H]2O[C@H](C)[C@@H](O)[C@H](N)[C@@H]2O)C[C@@H]2O[C@](O)(C[C@@H](O)C[C@@H](O)[C@H](O)CC[C@@H](O)C[C@@H](O)CC(=O)O[C@H]1C)C[C@H](O)[C@H]2C(=O)O [AMPHOTERICIN B] | – | – | – | – | – | – | MIC [9]: 3 µg/mL (≈ 3.25 µM)
4 | COc1cccc2c1C(=O)c1c(O)c3c(c(O)c1C2=O)C[C@@](O)(C(=O)CO)C[C@@H]3O[C@H]1C[C@H](N)[C@H](O)[C@H](C)O1 [DOXORUBICIN] | 0.03 µg/mL (≈ 0.0552 µM) | 0.007 µg/mL (≈ 0.0129 µM) | – | – | 0.3 µg/mL (≈ 0.552 µM) | – | –
5 | COC1=CC(=O)C[C@@H](C)[C@]12Oc1c(Cl)c(OC)cc(OC)c1C2=O [GRISEOFULVIN] | – | – | – | – | – | 2.6 µg/mL (≈ 7.37 µM) | –
6 | CCCCC[C@H]1CCCCCCCCCC(=O)O[C@H]2[C@H](O)[C@@H](CO)O[C@@H](O[C@H]3[C@H](O1)O[C@H](C)[C@H](O)[C@@H]3O)[C@@H]2O[C@@H]1O[C@@H](C)[C@H](OC(=O)[C@@H](C)CC)[C@@H](O[C@@H]2O[C@@H](C)[C@H](O)[C@@H](O)[C@H]2O)[C@H]1OC(=O)[C@@H](C)CC [TRICOLORIN A] | – | – | – | 12 µg/mL (≈ 11.7 µM) | – | – | –
